These results are taken from article PMC6324689 (Oncotarget, 2018).

Molecules are shown by their SMILES. Read-outs that look alike come from different tables or passages of the source.

Data set [1] deals with T1, human MDR1 (Homo sapiens, UniProt P08183).
T1 construct: host or cells: MDCKII
Nature of the data set: MDCKII-MDR1 monolayer bidirectional transport assay. The format is in vitro ADME. The conditions noted are these: MDCKII-MDR1 cells. As for the experimental part:
(§1) The monolayer assays were performed using parental and BCRP or MDR1 transfected MDCKII cell monolayers. […] Transfected and parental MDCKII cells were cultured on the inserts with 100 μL medium per well on the apical side and 25 mL in a single-well receiver tray for all 24 wells on the basolateral side, for 96 hours. Medium was changed 24 hours before the experiment. Permeability incubations were carried out in Hank’s Buffered Salt Solution (HBSS) at 37 ± 1°C. […] LY samples (100 μL from basolateral wells) were analyzed by measuring fluorescence with the following wavelengths: excitation – 430 nm, emission – 520 nm. Trans-epithelial electric resistance (TEER) of each well was measured to confirm the confluency of the monolayers after the experiments. The assays were conducted according to the actual SOLVO MDCKII-BCRP and MDCKII-MDR1 monolayer assay protocols (SOP). […] Cells were pre-incubated in assay buffer for 10 minutes to allow cells adjusting to the medium. Assay buffer containing the test articles (separately) at three concentrations (1 μM, 10 μM and 100 μM) was then added to the appropriate apical (100 μL) or basolateral (600 μL) chamber. […] The prazosin or digoxin efflux ratio was determined as a positive control for BCRP or MDR1 function, respectively. […] Bidirectional transport of the test articles in control, MDCKII-BCRP and MDCKII-MDR1 cells was determined by LC-MS/MS.

The target in data set [2] is T2, MDR1 (P-gp) (Homo sapiens, UniProt P08183).
T2 construct: host or cells: MDCKII
The description is as above. Format: in vitro ADME. Conditions: human, MDCK-MDR1, MDCKII-MDR1 cells, 120 minutes. On the procedure: as §1

The conditions of data set [3]: cited from earlier work.
Data set [4] addresses T3, BCRP (Homo sapiens, UniProt Q9UNQ0).
T3 construct: host or cells: MDCKII
T3 sequence (Q9UNQ0 1-655): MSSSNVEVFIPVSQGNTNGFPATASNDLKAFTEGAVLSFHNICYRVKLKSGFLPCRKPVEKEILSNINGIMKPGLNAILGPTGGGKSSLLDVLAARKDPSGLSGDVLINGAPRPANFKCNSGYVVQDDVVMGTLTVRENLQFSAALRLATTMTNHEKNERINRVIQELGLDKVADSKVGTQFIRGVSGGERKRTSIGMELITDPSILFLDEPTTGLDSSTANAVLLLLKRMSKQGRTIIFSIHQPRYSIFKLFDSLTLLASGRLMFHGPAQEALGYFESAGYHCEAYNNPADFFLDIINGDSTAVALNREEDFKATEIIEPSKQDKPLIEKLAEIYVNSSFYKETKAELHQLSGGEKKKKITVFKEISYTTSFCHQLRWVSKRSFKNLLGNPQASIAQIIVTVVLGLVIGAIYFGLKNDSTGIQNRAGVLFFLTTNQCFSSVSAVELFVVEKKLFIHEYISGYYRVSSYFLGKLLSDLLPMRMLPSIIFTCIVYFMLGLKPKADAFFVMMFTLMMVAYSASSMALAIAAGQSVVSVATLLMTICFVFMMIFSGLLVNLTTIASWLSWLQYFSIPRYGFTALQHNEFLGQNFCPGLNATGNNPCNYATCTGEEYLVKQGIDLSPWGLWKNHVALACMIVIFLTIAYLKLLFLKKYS
Nature of the data set: MDCKII-BCRP monolayer bidirectional transport assay. The conditions noted are these: MDCKII-BCRP cells; for Papp A→B at 120 min, 1 μM / Papp B→A at 120 min, 1 μM / Papp A→B at 120 min, 10 μM / Papp B→A at 120 min, 10 μM / Papp A→B at 120 min, 100 μM / Papp B→A at 120 min, 100 μM: human. The format is in vitro ADME. As for the experimental part:
as §1

T1 sequence (P08183 whole entry): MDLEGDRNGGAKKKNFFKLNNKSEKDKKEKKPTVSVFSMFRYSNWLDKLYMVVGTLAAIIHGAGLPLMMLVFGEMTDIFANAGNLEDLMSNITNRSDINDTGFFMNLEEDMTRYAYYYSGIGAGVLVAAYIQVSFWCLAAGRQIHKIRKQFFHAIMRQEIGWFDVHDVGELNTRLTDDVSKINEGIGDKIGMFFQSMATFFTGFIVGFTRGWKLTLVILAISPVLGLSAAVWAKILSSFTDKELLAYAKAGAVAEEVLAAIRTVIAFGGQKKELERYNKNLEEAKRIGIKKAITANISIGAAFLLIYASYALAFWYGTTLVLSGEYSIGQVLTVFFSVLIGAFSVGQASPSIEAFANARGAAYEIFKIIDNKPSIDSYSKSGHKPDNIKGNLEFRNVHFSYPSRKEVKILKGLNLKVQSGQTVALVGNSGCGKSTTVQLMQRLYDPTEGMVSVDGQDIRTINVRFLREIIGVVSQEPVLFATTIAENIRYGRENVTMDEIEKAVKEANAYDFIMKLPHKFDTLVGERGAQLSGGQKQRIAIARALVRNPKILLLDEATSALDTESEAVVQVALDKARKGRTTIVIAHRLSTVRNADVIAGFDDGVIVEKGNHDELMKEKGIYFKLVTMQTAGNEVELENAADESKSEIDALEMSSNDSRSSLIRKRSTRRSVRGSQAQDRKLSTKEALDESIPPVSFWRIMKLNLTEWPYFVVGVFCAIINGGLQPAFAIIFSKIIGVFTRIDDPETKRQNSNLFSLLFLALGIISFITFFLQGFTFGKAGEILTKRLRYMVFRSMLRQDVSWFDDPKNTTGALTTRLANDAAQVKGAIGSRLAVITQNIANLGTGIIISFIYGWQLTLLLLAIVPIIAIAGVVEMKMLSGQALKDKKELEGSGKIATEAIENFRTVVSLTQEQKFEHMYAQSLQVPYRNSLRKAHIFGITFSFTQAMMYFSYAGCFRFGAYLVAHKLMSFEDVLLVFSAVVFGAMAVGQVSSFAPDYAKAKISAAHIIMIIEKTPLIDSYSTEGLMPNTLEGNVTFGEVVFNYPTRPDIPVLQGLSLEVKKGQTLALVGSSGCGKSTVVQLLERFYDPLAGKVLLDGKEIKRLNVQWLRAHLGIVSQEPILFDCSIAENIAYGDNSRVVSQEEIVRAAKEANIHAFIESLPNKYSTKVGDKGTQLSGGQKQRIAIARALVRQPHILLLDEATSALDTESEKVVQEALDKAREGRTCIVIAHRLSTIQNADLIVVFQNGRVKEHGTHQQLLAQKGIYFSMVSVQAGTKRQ
T2 sequence (P08183 whole entry): as above

`NC(=O)c1cccc2cn(-c3ccc([C@@H]4CCCNC4)cc3)nc12` [Niraparib, 2-{4-[(3S)-piperidin-3-yl]phenyl}-2H-indazole-7-carboxamide]: the “Net ER” value in data set [1] (1 μM) worked out at 8.82 ± 4.94; in data set [1] (10 μM), 37.71 ± 8.95; in data set [1] (100 μM), 24.61 ± 5.32; in data set [4] (1 μM) it was 8.86 ± 3.28; in data set [4] (10 μM) it was 24.73 ± 6.47; in data set [4] (100 μM), 9.58 ± 1.70. The Papp A→B at 120 min, 1 μM in data set [2] was 5.33 ± 3.51 ×10⁻⁶ cm/s; in data set [4] (1 μM) it was 4.83 ± 2.29 ×10⁻⁶ cm/s. For the same compound, the basolateral-to-apical permeability (Papp B→A) at 120 min, 1 μM in data set [2] was 54.3 ± 3.03 ×10⁻⁶ cm/s; in data set [4] (1 μM) it was 52.1 ± 3.09 ×10⁻⁶ cm/s. The apical-to-basolateral permeability (Papp A→B) at 120 min, 10 μM is 1.32 ± 0.29 ×10⁻⁶ cm/s in data set [2] (10 μM) and 2.27 ± 0.7 ×10⁻⁶ cm/s in data set [4] (10 μM). For the same compound, the basolateral-to-apical permeability (Papp B→A) at 120 min, 10 μM in data set [2] (10 μM) came out at 51.2 ± 1.43 ×10⁻⁶ cm/s; in data set [4] (10 μM), 59.6 ± 3.65 ×10⁻⁶ cm/s. The Papp A→B at 120 min, 100 μM in data set [2] came out at 0.1 ± 0.01 ×10⁻⁶ cm/s; in data set [4] (100 μM), 4.1 ± 0.13 ×10⁻⁶ cm/s. Moreover, the apparent permeability from basolateral to apical (Papp B→A) at 120 min, 100 μM in data set [2] stood at 2.66 ± 0.14 ×10⁻⁶ cm/s; in data set [4] (100 μM), 43.1 ± 2.62 ×10⁻⁶ cm/s. Besides, the results for the BCS class entry in data set [3] (administered at 200 mg in humans) and in data set [3] (administered at 300 mg in humans) were “Class I” and “Class II”, respectively.
Consider `O=C(c1cc(Cc2n[nH]c(=O)c3ccccc23)ccc1F)N1CCN(C(=O)C2CC2)CC1` [Olaparib], for which the “Net ER” value in data set [1] (1 μM) was determined as 22.84 ± 2.65; in data set [1] (10 μM), 82.56 ± 6.13; in data set [1] (100 μM), 80.02 ± 5.98; in data set [4] (1 μM), 32.97 ± 9.58; in data set [4] (10 μM), 71.22 ± 14.97; in data set [4] (100 μM), 50.54 ± 13.65. Moreover, the apical-to-basolateral permeability (Papp A→B) at 120 min, 1 μM in data set [2] was found to be 1.7 ± 0.69 ×10⁻⁶ cm/s; in data set [4] (1 μM) it was 1.12 ± 1.04 ×10⁻⁶ cm/s. The Papp B→A at 120 min, 1 μM in data set [2] was found to be 46.5 ± 5.14 ×10⁻⁶ cm/s; in data set [4] (1 μM), 41.4 ± 4.35 ×10⁻⁶ cm/s. Further, the results for the apparent permeability from basolateral to apical (Papp B→A) at 120 min, 10 μM in data set [2] (10 μM) and in data set [4] (10 μM) were 45 ± 6.41 ×10⁻⁶ cm/s and 44.1 ± 2.65 ×10⁻⁶ cm/s, respectively. For the same compound, the results for the apparent permeability from apical to basolateral (Papp A→B) at 120 min, 100 μM in data set [2] and in data set [4] (100 μM) were 0.7 ± 0.05 ×10⁻⁶ cm/s and 0.9 ± 0.22 ×10⁻⁶ cm/s, respectively. In addition, the Papp B→A at 120 min, 100 μM in data set [2] stood at 57.5 ± 4.71 ×10⁻⁶ cm/s; in data set [4] (100 μM), 46.8 ± 3.4 ×10⁻⁶ cm/s. In addition, the “Biopharmaceutical Classification System (BCS) class” value in data set [3] (low permeability, very low solubility) was “Class IV”. Besides, in data set [4] (10 μM), the apical-to-basolateral permeability (Papp A→B) at 120 min, 10 μM turned out to be 0.59 ± 0.33 ×10⁻⁶ cm/s.

Broadly, the Papp A→B is how fast a substance crosses the layer from the apical side. Read a high Papp A→B as fast passage. The term Papp B→A denotes how fast a substance crosses the layer from the basolateral side.
